Measurements taken from PMC8285372, “Biochemical and functional characterization of mutant KRAS epitopes validates this oncoprotein for immunological targeting” (Nature Communications, 2021).
No end group written: not given here.

Legend:
HLA-A*03:01 [1] = biological target: T1, HLA-A*03:01 (Homo sapiens, UniProt P04439); assay: fluorescence polarization competitive peptide-binding assay
HLA-A*11:01 [2] = biological target: T2, HLA-A*11:01 (Homo sapiens, UniProt P04439, A114D/D185E/E176A/F33Y/L180Q/S129P/T187R); assay: as above
HLA-A*03:01 [3] = biological target: T1, HLA-A*03:01; assay: p-HLA complex stability, scintillation proximity assay of β2-microglobulin dissociation; assay type: binding
HLA-A*11:01 [4] = biological target: T2, HLA-A*11:01; assay: as above; assay type: binding
HLA-A*02:01 [5] = biological target: T3, HLA-A*02:01 (Homo sapiens, UniProt P04439, D140Y/D185E/D98H/E176V/E277Q/G131W/G231S/I119V/I121R/I166T/I218V/L300P/L318F/N151K/N90K/P208A/P217A/Q86G/Q94H/R138H/R169H/T345S); assay type: binding
HLA-B*07:02 [6] = biological target: T4, HLA-B*07:02 (Homo sapiens, UniProt P01889); assay: fluorescence polarization competitive peptide-binding assay; conditions: Experimental Affinity IC50
HLA-A*02:01 [7] = biological target: T3, HLA-A*02:01; assay: as above
HLA-B*07:02 [8] = biological target: T4, HLA-B*07:02; assay type: binding

ALLAVGATK [gp17-25]
IC50 (HLA-A*03:01 [1]; Experimental Affinity IC50): 962 nM
IC50 (HLA-A*11:01 [2]): 225 nM

ALNTITNLK
Experimental Stability (t1/2) Mean (HLA-A*03:01 [3]): 10.6 h
Half_life, Setp #1 (HLA-A*03:01 [3]): 11.4 h
Half_life, Setp #2 (HLA-A*03:01 [3]): 9.7 h
k, Setp #1 (HLA-A*03:01 [3]): 0.061
k, Setp #2 (HLA-A*03:01 [3]): 0.0711

ASLPTTIAK
Experimental Stability (t1/2) Mean (HLA-A*11:01 [4]): 22.5 h
Half_life, Setp #1 (HLA-A*11:01 [4]): 23.8 h
Half_life, Setp #2 (HLA-A*11:01 [4]): 21.1 h
k, Setp #1 (HLA-A*11:01 [4]): 0.0291
k, Setp #2 (HLA-A*11:01 [4]): 0.0328

FLIDLAFLI
Experimental Stability (t1/2) Mean (HLA-A*02:01 [5]): 10.1 h
Half_life, Setp #1 (HLA-A*02:01 [5]): 11 h
Half_life, Setp #2 (HLA-A*02:01 [5]): 9.2 h
k, Setp #1 (HLA-A*02:01 [5]): 0.063
k, Setp #2 (HLA-A*02:01 [5]): 0.0751

GAGGVGKSAL [Peptide 10-19]
IC50 (HLA-B*07:02 [6]): 76900 nM

GRAFVTIGK
IC50 (HLA-B*07:02 [6]): 371 nM

KITDFGIAK [HLA-A*11:01 control, Serine/threonine-protein kinase PknA, Mycobacterium tuberculosis, IEDB 109407]
Experimental Stability (t1/2) Mean (HLA-A*11:01 [4]): 15.6 h
Half_life, Setp #1 (HLA-A*11:01 [4]): 16.7 h
Half_life, Setp #2 (HLA-A*11:01 [4]): 14.6 h
k, Setp #1 (HLA-A*11:01 [4]): 0.0415
k, Setp #2 (HLA-A*11:01 [4]): 0.0476

KLAQRRVFH
Experimental Stability (t1/2) Mean (HLA-A*03:01 [3]): 3.5 h
Half_life, Setp #1 (HLA-A*03:01 [3]): 3.5 h
Half_life, Setp #2 (HLA-A*03:01 [3]): 3.6 h
k, Setp #1 (HLA-A*03:01 [3]): 0.2008
k, Setp #2 (HLA-A*03:01 [3]): 0.1902

KLVVVGAGGV [Peptide 5-14]
IC50 (HLA-A*02:01 [7]): 10900 nM

KLVVVGARGV [Peptide 5-14R]
IC50 (HLA-A*02:01 [7]): 20700 nM

RLARAIIEL [HLA-A*02:01 control, Genome polyprotein, West Nile virus, IEDB 54476]
Experimental Stability (t1/2) Mean (HLA-A*02:01 [5]): 3 h
Half_life, Setp #1 (HLA-A*02:01 [5]): 3.3 h
Half_life, Setp #2 (HLA-A*02:01 [5]): 2.8 h
k, Setp #1 (HLA-A*02:01 [5]): 0.2104
k, Setp #2 (HLA-A*02:01 [5]): 0.2479

RPIDDRFGL
Experimental Stability (t1/2) Mean (HLA-B*07:02 [8]): 3.2 h
Half_life, Setp #1 (HLA-B*07:02 [8]): 4 h
Half_life, Setp #2 (HLA-B*07:02 [8]): 2.5 h
k, Setp #1 (HLA-B*07:02 [8]): 0.174
k, Setp #2 (HLA-B*07:02 [8]): 0.2746

RPIDDRFGLAL
Experimental Stability (t1/2) Mean (HLA-B*07:02 [8]): 1.1 h
Half_life, Setp #1 (HLA-B*07:02 [8]): 1.2 h
Half_life, Setp #2 (HLA-B*07:02 [8]): 1.1 h
k, Setp #1 (HLA-B*07:02 [8]): 0.5749
k, Setp #2 (HLA-B*07:02 [8]): 0.6051

RVKLSALTLK
Experimental Stability (t1/2) Mean (HLA-A*03:01 [3]): 12.3 h
Half_life, Setp #1 (HLA-A*03:01 [3]): 11.6 h
Half_life, Setp #2 (HLA-A*03:01 [3]): 13.1 h
k, Setp #1 (HLA-A*03:01 [3]): 0.0597
k, Setp #2 (HLA-A*03:01 [3]): 0.053

SPRERLVLTL
Experimental Stability (t1/2) Mean (HLA-B*07:02 [8]): 1 h
Half_life, Setp #1 (HLA-B*07:02 [8]): 1.1 h
Half_life, Setp #2 (HLA-B*07:02 [8]): 0.9 h
k, Setp #1 (HLA-B*07:02 [8]): 0.6505
k, Setp #2 (HLA-B*07:02 [8]): 0.7477

TVNPIVTEK [HLA-A*11:01 control, Genome polyprotein, Dengue virus, IEDB 67094]
Experimental Stability (t1/2) Mean (HLA-A*11:01 [4]): 11.4 h
Half_life, Setp #1 (HLA-A*11:01 [4]): 11.8 h
Half_life, Setp #2 (HLA-A*11:01 [4]): 11 h
k, Setp #1 (HLA-A*11:01 [4]): 0.0587
k, Setp #2 (HLA-A*11:01 [4]): 0.0631

VLWDIPTPK
Experimental Stability (t1/2) Mean (HLA-A*03:01 [3]): 4.7 h
Half_life, Setp #1 (HLA-A*03:01 [3]): 4.5 h
Half_life, Setp #2 (HLA-A*03:01 [3]): 4.9 h
k, Setp #1 (HLA-A*03:01 [3]): 0.1534
k, Setp #2 (HLA-A*03:01 [3]): 0.1427
Experimental Stability (t1/2) Mean (HLA-A*11:01 [4]): 8 h
Half_life, Setp #1 (HLA-A*11:01 [4]): 8.4 h
Half_life, Setp #2 (HLA-A*11:01 [4]): 7.5 h
k, Setp #1 (HLA-A*11:01 [4]): 0.0825
k, Setp #2 (HLA-A*11:01 [4]): 0.093

VVGARGVGK [Peptide 8-16R]
IC50 (HLA-A*03:01 [1]; Experimental Affinity IC50): 5300 nM
IC50 (HLA-A*11:01 [2]): 634 nM

VVVGARGVGK [Peptide 7-16R]
IC50 (HLA-A*03:01 [1]; Experimental Affinity IC50): 3240 nM
IC50 (HLA-A*03:01 [1]; Experimental Affinity log10[IC50]): ≤ 3.59 nM
IC50 (HLA-A*11:01 [2]): 566 nM
